How the values were obtained:
[1] = tested on: patients with osteoarthritis; assay: osteoarthritis patients, oral enteric coated tablets (Example 9); assay type: in vivo, human; conditions: diclofenac in the former, ibuprofen in the latter
Procedure: Lactoferrin extracted from bovine milk was formed into enteric coated tablets (Production Example 4) and given orally to a person whose right knee and right elbow were affected by osteoarthritis associated with the injuries caused by their falling off a bicycle and a person whose knee joints were affected by osteoarthritis associated with obesity. Lactoferrin was administered at a dose of 150 mg (450 mg per day) 3 times a day after each meal.

[2] = tested on: volunteers affected by frozen shoulder; assay: frozen shoulder volunteers, oral enteric coated tablets (Example 11); assay type: in vivo, human
Procedure: Three male volunteers […], each of who was affected frozen shoulder and could not raise either one of their hands above the shoulder, took orally the enteric coated tablets of lactoferrin from bovine milk (Production Example 4). […] They took lactoferrin in a daily dose of 450 mg in 3 uniformly divided portions after each meal. […] disappeared and was cured in one volunteer on day 7 after the initial administration and in the other volunteers on day 12 and on day 23 after the same, respectively.

male Wistar rats [3] = assay: formalin test, comparison with diclofenac (Example 3); assay type: in vivo, rat; conditions: i.p. 30 minutes before formalin
Procedure: Male Wistar rats 6 weeks of age were used. The rats in one group were given bovine lactoferrin and those in another group were given a control drug, diclofenac, by intraperitoneal administration 30 minutes before injecting formalin into their foot pads. Their responses to pain are shown in FIG. 5: the phase 1 pain (left) and the phase 2 pain (right).
Lactoferrin and diclofenac were administered intraperitoneally 30 minutes before formalin injection both in the control group (n=4) and the diclofenac group (n=5). The pain inhibiting effect of diclofenac disappeared about 50 minutes after formalin injection, whereas the pain inhibiting effect of lactoferrin lasted long and even 60 minutes after formalin injection.

male Wistar rats [4] = assay: formalin test, intrathecal administration, comparison with morphine (Example 12); assay type: in vivo; conditions: 30 minutes before formalin, bLF 0.1 to 100 μg/rat, rhLF 100 μg/rat, morphine 10 μg/rat, FIGS. 15
Procedure: Groups consisting of male Wistar rats 6 weeks of age (n=6 to 8) were intrathecally administered 0.1 to 100 μg/rat of bovine lactoferrin (bLF), 100 μg/rat of recombinant human lactoferrin (rhLF) or 10 μg/rat of morphine (Mor) 30 minutes before formalin was injected into their foot pads. The results are shown in FIGS. 15: the number of the foot-lifting times in the phase 1 pain (left graph) and the number of the foot-lifting times in the phase 2 pain (right graph).

SMILES	response to earlier treatment [1]	response to earlier treatment [2]	inhibition of phase 1 pain (male Wistar rats [3]; FIG. 5)	inhibition of phase 2 pain (male Wistar rats [3]; FIG. 5)	duration of pain inhibiting effect after formalin injection (male Wistar rats [3]; FIGS. 7 and 8)	phase 1 pain (number of foot-lifting times) (male Wistar rats [4])	phase 2 pain (number of foot-lifting times) (male Wistar rats [4])
CC(C)Cc1ccc(C(C)C(=O)O)cc1 (centres unmarked) [ibuprofen]	failed to respond	–	–	–	–	–	–
O=C(O)Cc1ccccc1Nc1c(Cl)cccc1Cl [diclofenac, reference compound]	failed to respond	failed to respond	did not	inhibited the phase 2 pain, but the degree of inhibition was low compared with that by lactoferrin	about 50 minutes	–	–
CN1CC[C@]23c4c5ccc(O)c4O[C@H]2[C@@H](O)C=C[C@H]3[C@H]1C5 [morphine, reference compound]	–	–	–	–	–	inhibits	inhibits

Source: patent US8399414B2, “Analgesics” (NRL Pharma, Inc., priority 2002, dated 2013)
